Where “and” joins values, the source holds several entries; their conditions need not be identical. Equal entries are not always repeated. Each block holds one compound with its values, some of them ahead of it.
What was measured:
L1210 [1] = assay: In vivo activity against L1210 leukemia cells in mice at a dose of 12 mg/kg and expressed as Survival median in days as experiment 2; type: functional, Mus musculus
L1210 [2] = assay: In vivo activity against L1210 leukemia cells in mice at a dose of 4 mg/kg and expressed as Survival median in days as experiment 1.; type: functional, Mus musculus
L1210 [3] = assay: In vivo activity against L1210 leukemia cells in mice at a dose of 4 mg/kg and expressed as Survival median in days as experiment 3; type: functional, Mus musculus
L1210 [4] = assay: In vivo activity against L1210 leukemia cells in mice at a dose of 12 mg/kg and expressed as Survival median in days as experiment 3; type: functional, Mus musculus
L1210 [5] = assay: In vivo activity against L1210 leukemia cells in mice at a dose of 16 mg/kg and expressed as Survival median in days as experiment 1.; type: functional, Mus musculus
L1210 [6] = assay: In vivo activity against L1210 leukemia cells in mice at a dose of 16 mg/kg and expressed as Survival median in days as experiment 2; type: functional, Mus musculus
L1210 [7] = assay: In vivo activity against L1210 leukemia cells in mice at a dose of 16 mg/kg and expressed as Survival median in days as experiment 3; type: functional, Mus musculus
L1210 [8] = assay: In vivo activity against L1210 leukemia cells in mice at a dose of 20 mg/kg and expressed as Survival median in days as experiment 2; type: functional, Mus musculus
L1210 [9] = assay: In vivo activity against L1210 leukemia cells in mice at a dose of 2 mg/kg and expressed as Survival median in days as experiment 1.; type: functional, Mus musculus
L1210 [10] = assay: In vivo activity against L1210 leukemia cells in mice at a dose of 32 mg/kg and expressed as Survival median in days as experiment 1.; type: functional, Mus musculus
L1210 [11] = assay: Antitumor activity (T/C) evaluated against L1210 leukemia from the median survival time of treated mice (T) over that of control mice (C) at a dose of 4 mg/kg as experiment 1; type: functional, Mus musculus
L1210 [12] = assay: Antitumor activity (T/C) evaluated against L1210 leukemia from the median survival time of treated mice (T) over that of control mice (C) at a dose of 4 mg/kg as experiment 3; type: functional, Mus musculus
L1210 [13] = assay: Antitumor activity (T/C) evaluated against L1210 leukemia from the median survival time of treated mice (T) over that of control mice (C) at a dose of 8 mg/kg as experiment 3; type: functional, Mus musculus
L1210 [14] = assay: In vivo activity against L1210 leukemia cells in mice at a dose of 12 mg/kg and expressed as percent weight change after 7 days as experiment 2; type: functional, Mus musculus
L1210 [15] = assay: In vivo activity against L1210 leukemia cells in mice at a dose of 8 mg/kg and expressed as Survival median in days as experiment 1.; type: functional, Mus musculus
L1210 [16] = assay: In vivo activity against L1210 leukemia cells in mice at a dose of 8 mg/kg and expressed as Survival median in days as experiment 3; type: functional, Mus musculus
L1210 [17] = assay: In vivo activity against L1210 leukemia cells in mice at a dose of 4 mg/kg and expressed as Survival range in days as experiment 1.; type: functional, Mus musculus
L1210 [18] = assay: Antitumor activity (T/C) evaluated against L1210 leukemia from the median survival time of treated mice (T) over that of control mice (C) at a dose of 12 mg/kg as experiment 2; type: functional, Mus musculus
L1210 [19] = assay: Antitumor activity (T/C) evaluated against L1210 leukemia from the median survival time of treated mice (T) over that of control mice (C) at a dose of 12 mg/kg as experiment 3; type: functional, Mus musculus
L1210 [20] = assay: Antitumor activity (T/C) evaluated against L1210 leukemia from the median survival time of treated mice (T) over that of control mice (C) at a dose of 16 mg/kg as experiment 1; type: functional, Mus musculus
L1210 [21] = assay: Antitumor activity (T/C) evaluated against L1210 leukemia from the median survival time of treated mice (T) over that of control mice (C) at a dose of 16 mg/kg as experiment 2; type: functional, Mus musculus
L1210 [22] = assay: Antitumor activity (T/C) evaluated against L1210 leukemia from the median survival time of treated mice (T) over that of control mice (C) at a dose of 16 mg/kg as experiment 3; type: functional, Mus musculus
L1210 [23] = assay: Antitumor activity (T/C) evaluated against L1210 leukemia from the median survival time of treated mice (T) over that of control mice (C) at a dose of 2 mg/kg as experiment 1; type: functional, Mus musculus
L1210 [24] = assay: Antitumor activity (T/C) evaluated against L1210 leukemia from the median survival time of treated mice (T) over that of control mice (C) at a dose of 20 mg/kg as experiment 2; type: functional, Mus musculus
L1210 [25] = assay: Antitumor activity (T/C) evaluated against L1210 leukemia from the median survival time of treated mice (T) over that of control mice (C) at a dose of 24 mg/kg as experiment 2; type: functional, Mus musculus
L1210 [26] = assay: Antitumor activity (T/C) evaluated against L1210 leukemia from the median survival time of treated mice (T) over that of control mice (C) at a dose of 32 mg/kg as experiment 1; type: functional, Mus musculus
L1210 [27] = assay: In vivo activity against L1210 leukemia cells in mice at a dose of 12 mg/kg and expressed as percent weight change after 7 days as experiment 3; type: functional, Mus musculus
L1210 [28] = assay: In vivo activity against L1210 leukemia cells in mice at a dose of 16 mg/kg and expressed as percent weight change after 7 days as experiment 1.; type: functional, Mus musculus
L1210 [29] = assay: In vivo activity against L1210 leukemia cells in mice at a dose of 16 mg/kg and expressed as percent weight change after 7 days as experiment 2; type: functional, Mus musculus
L1210 [30] = assay: In vivo activity against L1210 leukemia cells in mice at a dose of 16 mg/kg and expressed as percent weight change after 7 days as experiment 3; type: functional, Mus musculus
L1210 [31] = assay: In vivo activity against L1210 leukemia cells in mice at a dose of 20 mg/kg and expressed as percent weight change after 7 days as experiment 2; type: functional, Mus musculus
L1210 [32] = assay: In vivo activity against L1210 leukemia cells in mice at a dose of 24 mg/kg and expressed as percent weight change after 7 days as experiment 2; type: functional, Mus musculus
L1210 [33] = assay: In vivo activity against L1210 leukemia cells in mice at a dose of 2 mg/kg and expressed as percent weight change after 7 days as experiment 1.; type: functional, Mus musculus
L1210 [34] = assay: In vivo activity against L1210 leukemia cells in mice at a dose of 32 mg/kg and expressed as percent weight change after 7 days as experiment 1.; type: functional, Mus musculus
L1210 [35] = assay: In vivo activity against L1210 leukemia cells in mice at a dose of 4 mg/kg and expressed as percent weight change after 7 days as experiment 1.; type: functional, Mus musculus
L1210 [36] = assay: In vivo activity against L1210 leukemia cells in mice at a dose of 4 mg/kg and expressed as percent weight change after 7 days as experiment 3; type: functional, Mus musculus
L1210 [37] = assay: In vivo activity against L1210 leukemia cells in mice at a dose of 8 mg/kg and expressed as percent weight change after 7 days as experiment 1.; type: functional, Mus musculus
L1210 [38] = assay: In vivo activity against L1210 leukemia cells in mice at a dose of 8 mg/kg and expressed as percent weight change after 7 days as experiment 3; type: functional, Mus musculus
[39] = Compound was evaluated for growth inhibition of WI-L2 cells.; type: functional, cell-based; conditions: Homo sapiens, WIL2
L1210 [40] = assay: Compound was evaluated for the growth inhibition of L1210 cells.; type: functional, cell-based; conditions: Mus musculus
Dihydrofolate reductase = biological target: T1, Dihydrofolate reductase (Homo sapiens, UniProt P00374)
T1 sequence (P00374 whole entry): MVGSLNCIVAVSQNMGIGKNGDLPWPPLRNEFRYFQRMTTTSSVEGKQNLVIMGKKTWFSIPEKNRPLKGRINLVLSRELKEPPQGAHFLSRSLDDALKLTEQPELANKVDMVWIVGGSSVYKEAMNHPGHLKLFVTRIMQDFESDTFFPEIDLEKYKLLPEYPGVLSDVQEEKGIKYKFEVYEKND
Description: Inhibition of dihydrofolate reductase (DHFR) from human cells (WI-L2/M4).

SMILES: Nc1nc(N)c2nc(CNc3ccc(C(=O)NC(CCCNC(=O)c4ccccc4C(=O)O)C(=O)O)cc3)cnc2n1 (stereo not given)
Survival median (L1210 [1]): 15 days | Survival median (L1210 [2]): 14 days | Survival median (L1210 [3]): 17 days | Survival median (L1210 [4]): 22 days | Survival median (L1210 [5]): 18 days | Survival median (L1210 [6]): 18 days | Survival median (L1210 [7]): 24 days | Survival median (L1210 [8]): >21 days | Survival median (L1210 [9]): 13 days | Survival median (L1210 [10]): 11 days | T/C (L1210 [11]): 175% | T/C (L1210 [12]): 213% | T/C (L1210 [13]): 250% | weight change % (L1210 [14]): 1% | Survival median (L1210 [15]): 15 days | Survival median (L1210 [16]): 20 days | Survival range (L1210 [17]): 13 days | T/C (L1210 [18]): 188% | T/C (L1210 [19]): 275% | T/C (L1210 [20]): 188% and 225% | T/C (L1210 [21]): 225% | T/C (L1210 [22]): 300% | T/C (L1210 [23]): 163% | T/C (L1210 [24]): >263% | T/C (L1210 [25]): 250% | T/C (L1210 [26]): 138% | weight change % (L1210 [27]): 2% | weight change % (L1210 [28]): -5% | weight change % (L1210 [29]): 1% | body weight change % (L1210 [30]): -3% | weight change % (L1210 [31]): -2% | weight change % (L1210 [32]): -3% | weight change % (L1210 [33]): -4% | weight change % (L1210 [34]): -11% | weight change % (L1210 [35]): -3% | weight change % (L1210 [36]): 8% | weight change % (L1210 [37]): 4% | weight change % (L1210 [38]): 4% | IC50 [39]: 48 nM

IC50 (L1210 [40]): 1.6 nM | IC50 (Dihydrofolate reductase): 35 nM
SMILES: CN(Cc1cnc2nc(N)nc(N)c2n1)c1ccc(C(=O)NC(CCC(=O)Nc2cccc(C(=O)O)c2)C(=O)O)cc1 (stereo not given)
IC50 [39]: 2.2 nM

IC50 (L1210 [40]): 25 nM | IC50 (Dihydrofolate reductase): 32 nM
SMILES: Nc1nc(N)c2nc(CNc3ccc(C(=O)NC(CCC(=O)Nc4cccc(C(=O)O)c4)C(=O)O)cc3)cnc2n1 (stereo not given)
IC50 [39]: 6.1 nM

From ChEMBL document CHEMBL1125236 (J Med Chem, 1991)
